Measurements taken from US20240158339A1, “TYRAMINE CONTAINING HYDROXYCINNAMIC ACID AMIDE DERIVATIVES AND METHODS OF USE THEREOF” (Brightseed, Inc., priority 2018, published 2024).

Tests used:
in vivo = conditions: male, C57BL/6, mouse
Method: Bioavailability Determinations.
A blood sample from each mouse was drawn at 0.25, 0.5, 1, 2, 4, 6 and 24 hours after administration. An 8μL aliquot of blood was used for analysis. After adding 200 μL of an internal standard comprising 100 ng/mL Labetalol, 100 ng/mL dexamethasone, 100 ng/mL tolbutamide, 100 ng/mL Verapamil, 100 ng/mL Glyburide, and 100 ng/mL Celecoxib in ACN, the mixture was vortex-mixed and centrifuged at 12000 rpm for 15 minutes at 4° C. to pellet precipitated protein. Four μL at of the supernatant was injected for LC-MS/MS analysis. Bioavailability (%) was calculated using AUC0-inf(% AUCExtra<20%) or AUC0-last, (% AUCExtra >20%) with nominal dose.

[1] = Hepatic microsome stability assay, mouse; assay type: in vitro ADME; conditions: for % Remaining: mouse microsomes
Method: (§1) Hepatic Microsome Assay. Hepatic microsomes stability assays were performed in accordance with known methods (Peddibhotla, et al. (2013) ACS Med. Chem. Lett. 4:846-851). Briefly, 3 μL of 25 μM compound solution in acetonitrile were incubated with 123 μL of mouse, human or rat liver microsomes (Xenotech, Kansas City, KS). After preincubation at 37° C. for 10 minutes, enzyme reactions were initiated by adding 120 !at of NADPH-generating system (2 mM NADP+, 10 mM glucose-6-phosphate, 0.4 U/ml glucose-6-phosphate dehydrogenase, and 5 mM MgCl2) in the presence of 100 mM potassium phosphate buffer (pH 7.4). […] The microsomal concentrations used were 1.0 mg/mL. Compounds were incubated in microsomes for 0, 5, 15, 30 and 60 minutes. The reactions were stopped by the addition of ice cold ACN and the reaction mixtures were centrifuged at 10,000 g for 10 minutes before the supernatant was removed for analysis. A 10 μL portion of the resulting extract was injected on a Thermo HPLC system equipped with PAL CTC plate sampler (96-well plate), Dionex Ultimate 3000 binary pump (flow rate at 0. 600 mL/min), Dionex Ultimate 3000 thermostatted column compartment (temperature at 40° C.), Thermo Endura Mass Spectrometer (ESI source), using a Thermo Scientific Accucore C18 (2.6 μM, 2.1×50 mm) column. A gradient was run starting at 95% H2O (0.1% formic acid) and 5% ACN (0. 1% formic acid) during the first 0. 5 min, then under gradient condition of 5-100% ACN (0.1% formic acid) from minute 0. 5 to 3.5, finishing at 95% H2O (0.1% formic acid) and 5% ACN (0.1% formic acid) over 0.5 min, with another 1 min at 95:5 to re-equilibrate.

[2] = Hepatic microsome stability assay, rat; assay type: in vitro ADME; conditions: for % Remaining: rat microsomes
Method: as §1

insulin mRNA = experiment: Insulin mRNA levels by quantitative PCR; assay type: cell-based; conditions: FIG. 2
Method: Expression of Insulin and HNF4α. RNA was purified using a RNEASY® chromatographic separation and isolation kits (Qiagen), and converted to cDNA using the gScript™ cDNA SuperMix (Quanta Biosciences). Q-PCR was conducted with cDNA corresponding to 2 μg of RNA using an Opticon Real-Time System (MJ Research) and QPCR SuperMix (BioPioneer). See All mRNA values were normalized to 18S rRNA values and are expressed as fold changes over vehicle-treated control.

E47MER = experiment: Counter-screen for estrogenic activity (E47MER luciferase reporter in HeLa cells); assay type: cell-based, human; conditions: with 1 μM or without tamoxifen, FIG. 5
Method: Counter-Screen for Estrogenic Activity. Estrogenic activity was monitored by co-transfection of a reporter plasmid containing a multimerized E-box 5′ of a minimal promoter fused to the Firefly luciferase gene with wild-type E47 or E47MER (Kiselyuk, et al. (2010) J. Biomol. Screen 15(6):663-70). HeLa cells were transfected using polyethylenimine, 0.2 μg 4RTK-Luc plasmid and either 0.3 μg of human E47, E47MER or pMSCVhph vector in 50 μl of serum-free Dulbecco's modification of Eagle medium per well. Transfections included Renilla luciferase (pRL-TK) plasmid as a control for transfection efficacy. Transfection conditions were as described in the PPRE-Luc reporter assay of Kiselyuk, et al. ((2010) J. Biomol. Screen 15(6):663-70). Sixteen hours after transfection, culture media were changed and maintained for 48 hours with tamoxifen and/or compound or vehicle (DMSO). Cells were then lysed and assayed for luciferase activity using the Promega DUAL-LUCIFERASE® reporter assay kit (Promega Corp., Madison, WI), and luminescence was measured using the Veritas™ Microplate Luminometer (Turner Biosystems, Sunnyvale, CA). Data were normalized to Renilla luciferase (pRL-TK) and expressed as fold-change over vehicle alone.

[3] = Hepatic microsome stability assay, human; assay type: in vitro ADME
Method: as §1

HepG2 cells = experiment: Lipid clearance (steatosis assay) in HepG2 cells; assay type: cell-based; conditions: HepG2 liver cells, 20 μM
Method: Lipid Clearance in HepG2 and T6PNE Cells (Steatosis Assay). The steatosis assay was carried out as described (Kiselyuk, et al. (2012) Chem. Biol. 19(7):806-818) with the exception of the drug concentration, which was 20 μM for N-trans-caffeoyltyramine with 0.25 mM palmitate in HepG2 cell lines, and 10 μM of either N-trans-caffeoyltyramine, N-trans-caffeoyltyramine, or p-coumaroyltyramine, with 0.25 mM palmitate in T6PNE cell lines. Steatosis was assessed using the Oil Red O Method for Fats kits (Poly Scientific; Warrington, PA), per manufacturer's guidelines. Briefly, frozen tissue slides or fixed cells were incubated in neat propylene glycol for 2 minutes and Oil Red O solution for […] for slides or 1 hour for fixed cells, differentiated in 85% propylene glycol solution for 1 minute, washed twice with distilled water and stained in Hematoxylin of 10 seconds. Slides were mounted with glycerin jelly mounting medium.

[4] = liver microsomes, pH 7.4, 1 μM, read-out: Clearance Rate
[5] = liver microsomes, pH 7.4, 10 μM
[6] = liver microsomes, pH 7.4, 10 μM, read-out: Clearance Rate

## O=C(/C=C/c1ccc(O)c(O)c1)NCCc1ccc(O)cc1 [N-trans-caffeoyltyramine]
In vivo
  bioavailability: ~11%
[1]; liver microsomes, pH 7.4, 1 μM
  half-life at 1 μM: 0.8 min
[1]; [4]
  microsomal CLint at 1 μM: 1760 µL/min/mg
[1]; [5]
  half-life at 10 μM: 6.9 min
[1]; [6]
  microsomal CLint at 10 μM: 200 µL/min/mg
[1]; 1 μM
  % Remaining: 0.4%
[1]; 10 μM
  % Remaining: 0.3%
[2]; liver microsomes, pH 7.4, 1 μM
  half-life at 1 μM: 2.1 min
[2]; [4]
  microsomal CLint at 1 μM: 674 µL/min/mg
[2]; [5]
  half-life at 10 μM: 22.4 min
[2]; [6]
  microsomal CLint at 10 μM: 30.9 µL/min/mg
[2]; 1 μM
  % Remaining: 0.6%
[2]; 10 μM
  % Remaining: 33.6%
Insulin mRNA
  insulin gene expression: upregulated
E47MER
  estrogenic activity: did not exhibit estrogenic activity
[3]; human microsomes
  apparent major biotransformation pathway: oxidation of the left-hand aryl ring
[3]; human microsomes, 1 μM
  % Remaining: 55.3%
[3]; human microsomes, 10 μM
  % Remaining: 85.4%
[3]; human, rat and mouse hepatic microsomes
  stability in hepatic microsomes: stable
[3]; liver microsomes, pH 7.4, human microsomes, 1 μM
  half-life at 1 μM: 77.3 min
[3]; liver microsomes, pH 7.4, human microsomes, 1 μM, read-out: Clearance Rate
  microsomal CLint at 1 μM: 17.9 µL/min/mg
[3]; liver microsomes, pH 7.4, human microsomes, 10 μM
  half-life at 10 μM: 262 min
[3]; liver microsomes, pH 7.4, human microsomes, 10 μM, read-out: Clearance Rate
  microsomal CLint at 10 μM: 5.3 µL/min/mg
HepG2 cells
  clearing of fats, Oil Red O staining: capable of clearing harmful fats from the liver
HepG2 cells; 0.25 mM palmitate
  accumulation of fats: inhibited accumulation of fats
